Experimental data from patent US9078446B2, “Use of N-(tetrazol-4-yl)- or N-(triazol-3-yl)arylcarboxamides or their salts for controlling unwanted plants in areas of transgenic crop plants being tolerant to HPPD inhibitor herbicides” (BAYER INTELLECTUAL PROPERTY GMBH, priority 2011, dated 2015).

Assays:
Format in all cases: in vivo
[1] = system: cotton plants expressing FMP 27 and FMP 37; assay: Tolerance to HPPD inhibitors of cotton plants expressing tolerant HPPD enzymes; details: T1 cotton plants; one week after application
Excerpt: Genes coding for the selected HPPD were obtained from a member of the group of organisms consisting of Blepharisma japonicum and Kordia algicida and cloned into an appropriate binary vector allowing the integration of DNA into the cotton genome, under the control of the CaMV35S promoter. For the respective cloning procedures, see WO2011076882 (PCT/EP2010/070567), Example 11; for Blepharisma japonicum (FMP37) and WO2011076889 (PCT/EP2010/070575), Example 11 for Kordia algicida (FMP27).
Between the sequence corresponding to the promoter and the sequence coding for the HPPD a DNA sequence coding for a transit peptide to the chloroplast was inserted, in order to add at the N-terminal extremity of the protein a target signal to allow the localization of the HPPD protein into the plant chloroplast. Cotton transformation was achieved as described in Example 12 of WO2011076882 (PCT/EP2010/070567) for Blepharisma japonicum (FMP37) and WO2011076889 (PCT/EP2010/070575) for Kordia algicida (FMP27). Seeds from T0 events showing tolerance to tembotrione were harvested.
T1 Cotton seeds were transferred to single pots and grown under standard cultivation conditions, see WO2011076882 (PCT/EP2010/070567) for Blepharisma japonicum (FMP37) and WO2011076889 (PCT/EP2010/070575) for Kordia algicida (FMP27).
At least 4 weeks later, plants will be sprayed with several N-(tetrazol-4-yl)- or N-(triazol-3-yl)arylcarboxamides as defined above.

[2] = system: transgenic tobacco plants expressing tolerant HPPD enzymes; assay: Tolerance of tobacco plants expressing tolerant HPPD enzymes (all transgenes)
Excerpt: (§1) Genes coding for the selected HPPD were obtained from a member of the group of organisms consisting of Avena sativa, Pseudomonas fluorescens mutant G336W, Blepharisma japonicum and Kordia algicida and cloned into the binary vector pBin19 allowing the integration of DNA into the tobacco genome, under the control of the CaMV35S promoter. For the cloning procedures, see A2 above for Avena sativa, see B2 above for Pseudomonas fluorescens, mutant G336W, see PCT/EP2010/070567 (published as WO 2011/076882, Example 5; for Blepharisma japonicum (FMP37) and see PCT/EP2010/070575, Example 5 for Kordia algicida (FMP27). Between the sequence corresponding to the promoter and the sequence coding for the HPPD a DNA sequence coding for a transit peptide to the chloroplast was inserted, in order to add at the N-terminal extremity of the protein a target signal to allow the localization of the HPPD protein into the plant chloroplast.
(§2) Seeds harvested from TO transformants will be put on standard soil for germination. Three weeks later plantlets (T1) will be transferred to single pots and grown under standard cultivation conditions (PCT/EP2010/070575, published as WO 2011/076889). Two weeks later, plants were sprayed with several N-(tetrazol-4-yl)- or N-(triazol-3-yl)arylcarboxamides as defined above.
(§3) Tables F1 to F5: Evaluation of the Symptoms Observed Due to the Application of the Herbicides on Transgenic Tobacco Plants, Expressing the Mutant Pseudomonas fluorescens HPPD G336W, the Avena HPPD (AvHPPD), the HPPD from Kordia algicida FMP27 or the HPPD from Blepharisma japonicum (FMP37), Compared to Non-Tranformed Tobacco Plants (“Wt”).
(§4) The herbicides (with “g Al/ha” meaning “g active ingredient/ha”) were applied on 8 to 10 plants originated from 1 to 3 independent transgenic events per transgene.
(§5) The symptoms were evaluated and classified as following: • 3=Very strong damage • 2=Strong damage • 1=Light and transient damage • 0=No damage

[3] = system: soybean plants expressing Pseudomonas fluorescens G336W mutant, FMP 27 and FMP 37; assay: Tolerance to HPPD inhibitors of soybean plants expressing tolerant HPPD enzymes; details: T1 soybean plants; one week after application
Excerpt: Genes coding for the selected HPPD were obtained from a member of the group of organisms consisting of Blepharisma japonicum and Kordia algicida and cloned into an appropriate binary vector allowing the integration of DNA into the soybean genome, under the control of the CaMV35S promoter. For the respective cloning procedures, see WO2011076882 (PCT/EP2010/070567), Example 9; for Blepharisma japonicum (FMP37) and WO2011076889 (PCT/EP2010/070575), Example 9 for Kordia algicida (FMP27).
Between the sequence corresponding to the promoter and the sequence coding for the HPPD a DNA sequence coding for a transit peptide to the chloroplast was inserted, in order to add at the N-terminal extremity of the protein a target signal to allow the localization of the HPPD protein into the plant chloroplast. By using the vectors “pFCO112” (Blepharisma japonicum, WO2011076882), pFCO116 (Korida algicida, WO2011076889), and pFCO117” (see Example B2, above), soybean transformation was achieved as described in Example 10 of WO2011076882 (PCT/EP2010/070567) for Blepharisma japonicum (FMP37) and WO2011076889 (PCT/EP2010/070575) for Kordia algicida (FMP27). Seeds from TO events showing tolerance to tembotrione were harvested.
T1 Soybean seeds were transferred to single pots and grown under standard cultivation conditions, see WO2011076882.
Two weeks later, plants will be sprayed with several N-(tetrazol-4-yl)- or N-(triazol-3-yl)arylcarboxamides as defined above.

[4] = system: transgenic tobacco plants expressing mutant Pseudomonas fluorescens HPPD G336W (PfHPPD-G336W); assay: Symptoms due to herbicide application on transgenic tobacco plants (damage classes 0-3); details: PfHPPD-G336W line 646; 25 g Al/ha; one week after application
Excerpt: as §1, §2, §3, §4, §5

[5] = system: transgenic tobacco plants expressing HPPD from Blepharisma japonicum (FMP37); assay: as above; details: 25 g Al/ha, one week after application
Excerpt: as §1, §2, §3, §4, §5

[6] = system: transgenic tobacco plants expressing HPPD from Kordia algicida FMP27; assay: as above; details: 25 g Al/ha, one week after application
Excerpt: as §1, §2, §3, §4, §5

[7] = system: transgenic tobacco plants expressing Avena HPPD (AvHPPD); assay: as above; details: 25 g Al/ha, one week after application
Excerpt: as §1, §2, §3, §4, §5

[8] = system: non-transformed tobacco plants (Wt); assay: Symptoms due to herbicide application on tobacco plants (damage classes 0-3); details: 25 g Al/ha, one week after application
Excerpt: as §2, §3, §4, §5

CCn1nnnc1NC(=O)c1ccc(C(F)(F)F)c(S(C)(=O)=O)c1C [Compound 5-148]
1: number of plants with Damage 1 (Light and transient damage) ([5]; FMP37 line 754) | number of plants with Damage 0 (No damage) ([5]; FMP37 line 795) | number of plants with Damage 1 (Light and transient damage) ([6]; FMP27 line 733) | number of plants with Damage 1 (Light and transient damage) ([7]; AvHPPD line 656) | number of plants with Damage 1 (Light and transient damage) ([7]; AvHPPD line 659) | number of plants with Damage 0 (No damage) ([7]; AvHPPD line 699) | number of plants with Damage 1 (Light and transient damage) ([7]; AvHPPD line 699) | number of plants with Damage 2 (Strong damage) ([7]; AvHPPD line 699)
0: number of plants with Damage 0 (No damage) [4] | number of plants with Damage 1 (Light and transient damage) ([5]; FMP37 line 795) | number of plants with Damage 2 (Strong damage) ([6]; FMP27 line 734) | number of plants with Damage 0 (No damage) ([6]; FMP27 line 735) | number of plants with Damage 2 (Strong damage) ([7]; AvHPPD line 659) | number of plants with Damage 0 (No damage) [8] | number of plants with Damage 1 (Light and transient damage) [8] | number of plants with Damage 2 (Strong damage) [8]
10: number of plants with Damage 3 (Very strong damage) [8]
3: number of plants with Damage 1 (Light and transient damage) [4] | number of plants with Damage 1 (Light and transient damage) ([5]; FMP37 line 749) | number of plants with Damage 3 (Very strong damage) ([5]; FMP37 line 749) | number of plants with Damage 3 (Very strong damage) ([5]; FMP37 line 795) | number of plants with Damage 0 (No damage) ([6]; FMP27 line 733) | number of plants with Damage 2 (Strong damage) ([7]; AvHPPD line 656) | number of plants with Damage 0 (No damage) ([7]; AvHPPD line 659)
2: number of plants with Damage 2 (Strong damage) [4] | number of plants with Damage 0 (No damage) ([5]; FMP37 line 749) | number of plants with Damage 2 (Strong damage) ([5]; FMP37 line 749) | number of plants with Damage 0 (No damage) ([5]; FMP37 line 754) | number of plants with Damage 3 (Very strong damage) ([5]; FMP37 line 754) | number of plants with Damage 3 (Very strong damage) ([6]; FMP27 line 733) | number of plants with Damage 1 (Light and transient damage) ([6]; FMP27 line 734) | number of plants with Damage 3 (Very strong damage) ([6]; FMP27 line 735) | number of plants with Damage 0 (No damage) ([7]; AvHPPD line 656)
7: number of plants with Damage 3 (Very strong damage) ([7]; AvHPPD line 699)
good tolerance: tolerance of the transgenic tobacco plants (symptoms due to application of the herbicide) ([2]; T1 plants sprayed, evaluated one week after application)
superior tolerance: tolerance of transgenic plants compared to the wild-type cotton plants [1] | tolerance of transgenic plants compared to the wild-type soybean plants [3]
5: number of plants with Damage 2 (Strong damage) ([5]; FMP37 line 754)
less sensitive: sensitivity of transgenic tobacco plants compared to wild type (wt) plants ([2]; all tested independent lines, agronomically relevant dose)
4: number of plants with Damage 3 (Very strong damage) [4] | number of plants with Damage 2 (Strong damage) ([6]; FMP27 line 733) | number of plants with Damage 0 (No damage) ([6]; FMP27 line 734) | number of plants with Damage 3 (Very strong damage) ([6]; FMP27 line 734) | number of plants with Damage 1 (Light and transient damage) ([6]; FMP27 line 735) | number of plants with Damage 2 (Strong damage) ([6]; FMP27 line 735) | number of plants with Damage 3 (Very strong damage) ([7]; AvHPPD line 656)
6: number of plants with Damage 2 (Strong damage) ([5]; FMP37 line 795) | number of plants with Damage 3 (Very strong damage) ([7]; AvHPPD line 659)
